The values that follow come from ChEMBL document CHEMBL6115038, “Immunoproteasome as a Target for Prodrugs” (J Med Chem, 2025).

A short description of data set [1]: Prodrug release in tris HCL buffer assessed as human 20S proteasome core particle-mediated hydrolysis by measuring Dox release measured for 4 hrs in presence of PA28alpha/beta activated complex by mass spectrometry analysis. In kind it is ADME.
In data set [2] the test system is 20S proteasome. Briefly: Prodrug release in tris HCL buffer assessed as human 20S immunoproteasome-mediated hydrolysis by measuring Dox release measured upto 8 hrs by mass spectrometry analysis. In kind it is ADME, protein-complex assay.
In data set [3] the test system is 20S proteasome. Description: Prodrug release in tris HCL buffer at pH 7.4 assessed as human 20S immunoproteasome mediated hydrolysis by measuring Dox release at 10 uM incubated for 4 hrs in presence of 37.5 to 75 nM of PA28alpha/beta activated complex by mass spectrometry analysis. Conditions: pH 7.4, 4 h. The format is ADME, protein-complex assay.
The nature of data set [4]: Prodrug release in tris HCL buffer assessed as human 20S proteasome core particle-mediated hydrolysis by measuring Dox release measured for 4 hrs by mass spectrometry analysis. The format is ADME.
Data set [5] can be described thus: Cytotoxicity against human AC16 [Human hybrid] cells assessed as cell viability incubated for 72 hrs by celltiter-glo assay. In kind it is toxicity, cell-based. On the technique in general: ATP-based viability assays read luminescence as a measure of living cells.
The nature of data set [6]: Cytotoxicity against human AC16 [Human hybrid] cells assessed as cell viability at 10 uM incubated for 72 hrs by celltiter-glo assay relative to control. In kind it is toxicity, cell-based. Conditions: read-out: Activity.
Data set [7] addresses T1, von Hippel-Lindau disease tumor suppressor/Bromodomain-containing protein 4 (Homo sapiens) (UniProt O60885+P40337). Description: PROTAC activity at BRD4/VHL in human Ramos cells expressing iCP assessed as induction of BRD4 degradation at 100 nM compound administered as prodrug-PROTAC incubated for 18 hrs in presence of ONX-0914 by immunoblotting analysis. The format is cell-based.

Data set [8] concerns Ramos. Briefly: Cytotoxicity against human Ramos cells assessed as cell viability incubated for 24 hrs by celltiter-glo assay. In kind it is functional, cell-based.
The target in data set [9] is T1, von Hippel-Lindau disease tumor suppressor/Bromodomain-containing protein 4 (Homo sapiens). Description: PROTAC activity at BRD4/VHL in human Ramos cells expressing iCP assessed as induction of BRD4 degradation at 1 nM compound administered as prodrug-PROTAC incubated for 18 hrs by immunoblotting analysis. The format is cell-based. On the technique in general: A western blot detects proteins with antibodies after separation by electrophoresis.

Data set [10] can be described thus: Cytotoxicity against human AC16 [Human hybrid] cells expressing iCP assessed as cell viability incubated for 24 hrs by celltiter-glo assay. The format is toxicity, cell-based.
For data set [11], the system named is 20S proteasome. Briefly: Prodrug release in tris HCL buffer at pH 7.4 assessed as human 20S immunoproteasome mediated hydrolysis by measuring Dox release at 10 uM incubated for 90 mins in presence of PA28alpha/beta activated complex by fluorescence based analysis. Particulars: pH 7.4, 1.5 h. The format is ADME, protein-complex assay.
The subject of data set [12] is 20S proteasome. Briefly: Prodrug release in tris HCL buffer at pH 7.4 assessed as human 20S immunoproteasome mediated hydrolysis by measuring Dox release at 10 uM incubated for 4 hrs in presence of PA28alpha/beta activated complex by mass spectrometry analysis. In kind it is ADME, protein-complex assay. Conditions: pH 7.4, 4 h.
The test system of a further data set is MM.1R. Briefly: Cytotoxicity against human MM1.R cells assessed as cell viability at 0.0001 to 100 uM incubated for 72 hrs by celltiter-glo assay. Conditions: dose 0.0001-100 µM. The format is functional, cell-based.
In the next data set the test system is Raji. Briefly: Cytotoxicity against human Raji cells assessed as cell viability at 0.0001 to 100 uM incubated for 72 hrs by celltiter-glo assay. Particulars: dose 0.0001-100 µM. The format is functional, cell-based.
Data set [13] relates to Ramos. Briefly: Cytotoxicity against human Ramos cells assessed as cell viability incubated for 72 hrs by celltiter-glo assay. In kind it is functional, cell-based.
Data set [14] in a line: Stability in human serum incubated for 1 hr by mass spectrometry analysis. In kind it is ADME, cell-free.
Data set [15] can be described thus: Cytotoxicity against human AC16 [Human hybrid] cells assessed as cell viability at 20 uM incubated for 72 hrs by celltiter-glo assay relative to control. The format is toxicity, cell-based. Particulars: read-out: Activity.

The source made the active and inactive calls. No cut-off for these calls is given here. Peptide text beside a SMILES is read from it. * marks the point of attachment. Doxorubicin(3'-N) = COc1cccc2c1C(=O)c1c(O)c3c(c(O)c1C2=O)C[C@@](O)(C(=O)CO)C[C@@H]3O[C@H]1C[C@H](N*)[C@H](O)[C@H](C)O1; Morpholinoacetyl = O=C(CN1CCOCC1)*

The term IC50 denotes the point on the concentration scale where inhibition reaches its midpoint.

T1 sequence (P40337 whole entry, looked up, other chains not shown): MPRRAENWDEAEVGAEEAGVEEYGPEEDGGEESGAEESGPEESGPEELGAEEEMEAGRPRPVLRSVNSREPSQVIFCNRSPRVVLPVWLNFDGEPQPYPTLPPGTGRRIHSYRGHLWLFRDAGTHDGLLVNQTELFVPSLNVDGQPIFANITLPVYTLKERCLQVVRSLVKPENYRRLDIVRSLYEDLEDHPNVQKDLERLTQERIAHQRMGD

With `COc1cccc2c1C(=O)c1c(O)c3c(c(O)c1C2=O)C[C@@](O)(C(=O)CO)C[C@@H]3O[C@H]1C[C@H](NC(=O)[C@H](Cc2ccc(O)cc2)NC(=O)[C@@H](NC(=O)[C@H](CC(C)C)NC(=O)[C@H](CC(C)C)NC(C)=O)C(C)C)[C@H](O)[C@H](C)O1` (Ac-LLVY-{Doxorubicin(3'-N)}), the Drug metabolism result in data set [1] was “metabolite_detected”; with 20S proteasome [2], “metabolite_detected”; with 20S proteasome [3] it was “metabolite_notdetected”; in [4], “metabolite_notdetected”.
Consider `COc1cccc2c1C(=O)c1c(O)c3c(c(O)c1C2=O)C[C@@](O)(C(=O)CO)C[C@@H]3O[C@H]1C[C@H](N)[C@H](O)[C@H](C)O1` [DOXORUBICIN], for which the IC50 at 72 h in data set [5] turned out to be 0.233 µM.
Take `COc1cccc2c1C(=O)c1c(O)c3c(c(O)c1C2=O)C[C@@](O)(C(=O)CO)C[C@@H]3O[C@H]1C[C@H](NC(C)=O)[C@H](O)[C@H](C)O1`: the viability at 72 h, 10 µM in data set [6] was over 90%.
With `CSCC[C@H](NC(=O)[C@@H](NC(=O)[C@H](C)NC(=O)CN1CCOCC1)[C@@H](C)O)C(=O)N[C@@H](Cc1c[nH]c2ccccc12)C(=O)Nc1ccc(COC(=O)O[C@H]2C[C@H](C(=O)N[C@@H](C)c3ccc(-c4scnc4C)cc3)N(C(=O)[C@@H](NC(=O)COCCCOCCNC(=O)C[C@@H]3N=C(c4ccc(Cl)cc4)c4c(sc(C)c4C)-n4c(C)nnc43)C(C)(C)C)C2)cc1`, in data set [7], the result was inactive. The IC50 in the data set on Ramos [8] was found to be 0.01 µM. In addition, the result in data set [9] was Active. Besides, in data set [10], the Activity result was “Toxic”.
Consider `COc1cccc2c1C(=O)c1c(O)c3c(c(O)c1C2=O)C[C@@](O)(C(=O)CO)C[C@@H]3O[C@H]1C[C@H](NC(=O)[C@H](Cc2c[nH]c3ccccc23)NC(=O)[C@H](CCSC)NC(=O)[C@@H](NC(=O)[C@H](C)NC(C)=O)[C@@H](C)O)[C@H](O)[C@H](C)O1` (Ac-ATMW-{Doxorubicin(3'-N)}), for which the Drug metabolism entry in the data set on 20S proteasome [11], with 20S proteasome [2] and with 20S proteasome [12] was “metabolite_detected” throughout.
For the compound `Cc1ncsc1-c1ccc([C@H](C)NC(=O)[C@@H]2C[C@@H](O)CN2C(=O)[C@@H](NC(=O)COCCCOCCNC(=O)C[C@@H]2N=C(c3ccc(Cl)cc3)c3c(sc(C)c3C)-n3c(C)nnc32)C(C)(C)C)cc1`, in the data set on Ramos [8], the IC50 worked out at 0.01 µM. Further, the result in data set [9] was Active.
As for `COc1cccc2c1C(=O)c1c(O)c3c(c(O)c1C2=O)C[C@@](O)(C(=O)CO)C[C@@H]3O[C@H]1C[C@H](NC(=O)[C@H](Cc2c[nH]c3ccccc23)NC(=O)[C@H](CCSC)NC(=O)[C@@H](NC(=O)[C@H](C)NC(=O)CN2CCOCC2)[C@@H](C)O)[C@H](O)[C@H](C)O1` (Morpholinoacetyl-ATMW-{Doxorubicin(3'-N)}), the result in the data set on MM.1R and with Raji was Active. In the data set on Ramos [13], the IC50 is 5.5 µM. Moreover, the Stability result in [14] was “Stable”. In addition, the viability at 72 h, 20 µM in [15] is over 80%.
In the case of `COc1cccc2c1C(=O)c1c(O)c3c(c(O)c1C2=O)C[C@@](O)(C(=O)CO)C[C@@H]3O[C@H]1C[C@H](NC(=O)[C@H](C)NC(=O)[C@H](C)NC(=O)[C@H](C)NC(=O)[C@H](C)NC(C)=O)[C@H](O)[C@H](C)O1` (Ac-AAAA-{Doxorubicin(3'-N)}), the Drug metabolism entry is reported as “metabolite_detected” with 20S proteasome [2] and “metabolite_notdetected” with 20S proteasome [3].
